The record followed here is patent US9962369B2, “Methods and compositions for transdermal delivery” (SPRAYABLE HOLDINGS, INC., priority 2014, dated 2018).

The data set has as its system human skin tissue. As to the kind of experiment: Penetration rate of AI compound in AI-helper composition through human skin in vitro, modified Franz cells. The data set is classed as in vitro ADME. The following applies: for Skin penetration rate of alpha-lipoic acid: 20° C.; for Skin penetration rate of Al compound: Al compound 0.5% w/v; for Skin penetration rate of Al compound / Skin penetration rate of AI compound: 25 °C. As for the experimental part: Penetration rate of AI compound in the AI-helper composition through human skin were measured in vitro by modified Franz cells. A Franz cell had two chambers: the top sample chamber and the bottom receiving chamber. The human skin tissue (450-500 μm thick) that separated the top and the receiving chambers was isolated from the anterior or posterior thigh areas.

Setting [1] is: 2-(Diethylamino)ethyl 2-(4-isobutylphenyl)propionate hydrochloride 6% w/v, water.
Where [2] appears, read: D-Phenylalanine isopropyl ester hydrochloride 6% w/v, water.
Setting [3] is: Dialkylaminoalkyl 2-(4-isobutylphenyl)propionate: None.
The mark [4] stands for this setting: L-Phenylalanine isopropyl ester hydrochloride 6% w/v, water.
The mark [5] stands for this setting: no isoleucine ester (None), AI compound 0.5 % w/v in water.
Setting [6] is: no leucine ester (None), AI compound 0.5 % w/v in water.
The mark [7] stands for this setting: no tryptophan ester (None), AI compound 0.5 % w/v in water.
[8] abbreviates: with D-isoleucine isopropyl ester hydrochloride 6 % w/v in water, AI compound 0.5 % w/v.
[9] abbreviates: with D-leucine isopropyl ester hydrochloride 6 % w/v in water, AI compound 0.5 % w/v.
The mark [10] stands for this setting: with D-tryptophan isopropyl ester hydrochloride 6 % w/v in water, AI compound 0.5 % w/v.
The mark [11] stands for this setting: with L-isoleucine isopropyl ester hydrochloride 6 % w/v in water, AI compound 0.5 % w/v.
Where [12] appears, read: with L-leucine isopropyl ester hydrochloride 6 % w/v in water, AI compound 0.5 % w/v.
Where [13] appears, read: with L-tryptophan isopropyl ester hydrochloride 6 % w/v in water, AI compound 0.5 % w/v.

The structures appear in SMILES notation.

Take `O=C(O)CCCCC1CCSS1` (stereo not drawn) [Alpha-lipoic acid]: the “Skin penetration rate of alpha-lipoic acid” value is 0.071 ± 0.063 μg/cm^2/h (0.5% alpha-lipoic acid without helper esters); 33.928 ± 2.876 μg/cm^2/h (alpha-lipoic acid 0.5% w/v, Tryptophan isopropyl ester•HA 6% w/v, HA = 1/2H2SO4, water); 34.321 ± 2.867 μg/cm^2/h (alpha-lipoic acid 0.5% w/v, Tryptophan isopropyl ester•HA 6% w/v, HA = 1/3H3PO4, water); 34.691 ± 3.511 μg/cm^2/h (alpha-lipoic acid 0.5% w/v, Tryptophan isopropyl ester•HA 6% w/v, HA = 2/3H3PO4, water); 35.006 ± 2.892 μg/cm^2/h (alpha-lipoic acid 0.5% w/v, Tryptophan isopropyl ester•HA 6% w/v, HA = Acetic acid, water); 34.665 ± 3.019 μg/cm^2/h (alpha-lipoic acid 0.5% w/v, Tryptophan isopropyl ester•HA 6% w/v, HA = Benzoic acid, water). Besides, the “Skin penetration rate of alpha-lipoic acid” value is, setting by setting: (alpha-lipoic acid 0.5% w/v, Tryptophan isopropyl ester•HA 6% w/v, HA = Butyric acid, water) 35.178 ± 3.598 μg/cm^2/h; (alpha-lipoic acid 0.5% w/v, Tryptophan isopropyl ester•HA 6% w/v, HA = Citric acid, water) 35.371 ± 3.587 μg/cm^2/h; (alpha-lipoic acid 0.5% w/v, Tryptophan isopropyl ester•HA 6% w/v, HA = H2SO4, water) 33.780 ± 2.891 μg/cm^2/h; (alpha-lipoic acid 0.5% w/v, Tryptophan isopropyl ester•HA 6% w/v, HA = HBr, water) 35.211 ± 3.285 μg/cm^2/h; (alpha-lipoic acid 0.5% w/v, Tryptophan isopropyl ester•HA 6% w/v, HA = HCl, water) 35.456 ± 2.476 μg/cm^2/h; (alpha-lipoic acid 0.5% w/v, Tryptophan isopropyl ester•HA 6% w/v, HA = HF, water) 34.673 ± 3.156 μg/cm^2/h. Further, the “Skin penetration rate of alpha-lipoic acid” value (alpha-lipoic acid 0.5% w/v, Tryptophan isopropyl ester•HA 6% w/v, HA = HI, water) is listed as 34.467 ± 2.583 μg/cm^2/h and the “Skin penetration rate of alpha-lipoic acid” value (alpha-lipoic acid 0.5% w/v, Tryptophan isopropyl ester•HA 6% w/v, HA = Lactic acid, water) is reported as 35.007 ± 2.879 μg/cm^2/h. Also, the “Skin penetration rate of Al compound” value under setting [1] was determined as 30.478 ± 2.982 μg/cm^2/h; the “Skin penetration rate of Al compound” value under setting [2] amounted to 31.796 ± 3.176 μg/cm^2/h; the “Skin penetration rate of Al compound” value under setting [3] came to 0.056 ± 0.032 μg/cm^2/h; the “Skin penetration rate of Al compound” value under setting [4] was 32.878 ± 3.568 μg/cm^2/h; the “Skin penetration rate of Al compound” value (Phenylalanine ester: None) amounted to 0.058 ± 0.047 μg/cm^2/h. Further, the “Skin penetration rate of AI compound” value runs as follows: under setting [5], 0.057 ± 0.036 μg/cm^2/h; under setting [6], 0.051 ± 0.023 μg/cm^2/h; under setting [7], 0.071 ± 0.063 μg/cm^2/h; under setting [8], 28.013 ± 2.078 μg/cm^2/h; under setting [9], 27.476 ± 2.116 μg/cm^2/h; under setting [10], 35.456 ± 2.476 μg/cm^2/h. Besides, the “Skin penetration rate of AI compound” value reads like this: under setting [11], 28.897 ± 2.126 μg/cm^2/h; under setting [12], 28.377 ± 2.378 μg/cm^2/h; under setting [13], 36.378 ± 2.978 μg/cm^2/h.
On to `CC1=C(/C=C/C(C)=C/C=C/C(C)=C/C=C/C=C(C)/C=C/C=C(C)/C=C/C2=C(C)C(=O)[C@@H](O)CC2(C)C)C(C)(C)C[C@H](O)C1=O` [Astaxanthin], for which the “Skin penetration rate of Al compound” value under setting [1] worked out at 12.331 ± 2.182 μg/cm^2/h; the “Skin penetration rate of Al compound” value under setting [2] is 12.431 ± 2.178 μg/cm^2/h; the “Skin penetration rate of Al compound” value under setting [3] was determined as 0.019 ± 0.010 μg/cm^2/h; the “Skin penetration rate of Al compound” value under setting [4] is recorded as 12.341 ± 2.042 μg/cm^2/h; the “Skin penetration rate of Al compound” value (Phenylalanine ester: None) was 0.019 ± 0.011 μg/cm^2/h. In addition, the “Skin penetration rate of AI compound” value worked out at 0.013 ± 0.009 μg/cm^2/h under setting [5]; 0.010 ± 0.008 μg/cm^2/h under setting [6]; 0.012 ± 0.013 μg/cm^2/h under setting [7]; 11.354 ± 2.452 μg/cm^2/h under setting [8]; 11.134 ± 2.183 μg/cm^2/h under setting [9]; 11.431 ± 2.312 μg/cm^2/h under setting [11]. Moreover, the “Skin penetration rate of AI compound” value under setting [12] came out at 11.251 ± 2.112 μg/cm^2/h.
Turning to `CC1=C(/C=C/C(C)=C/C=C/C(C)=C/C=C/C=C(C)/C=C/C=C(C)/C=C/C2=C(C)CCCC2(C)C)C(C)(C)CCC1` [Beta Carotene], the “Skin penetration rate of Al compound” value turned out to be 10.138 ± 2.381 μg/cm^2/h under setting [1]; 10.658 ± 2.003 μg/cm^2/h under setting [2]; 0.015 ± 0.011 μg/cm^2/h under setting [3]; 10.772 ± 2.174 μg/cm^2/h under setting [4]; 0.019 ± 0.008 μg/cm^2/h (Phenylalanine ester: None). The “Skin penetration rate of AI compound” value reads like this: under setting [5], 0.015 ± 0.007 μg/cm^2/h; under setting [6], 0.012 ± 0.011 μg/cm^2/h; under setting [7], 0.009 ± 0.013 μg/cm^2/h; under setting [8], 9.471 ± 2.323 μg/cm^2/h; under setting [9], 9.501 ± 2.763 μg/cm^2/h; under setting [10], 11.598 ± 2.173 μg/cm^2/h. In addition, the “Skin penetration rate of AI compound” value reads like this: under setting [11], 9.412 ± 2.781 μg/cm^2/h; under setting [12], 9.252 ± 2.321 μg/cm^2/h; under setting [13], 11.372 ± 2.326 μg/cm^2/h.
For `Nc1nc2ncc(CNc3ccc(C(=O)N[C@@H](CCC(=O)O)C(=O)O)cc3)nc2c(=O)[nH]1` [Folic acid], the “Skin penetration rate of Al compound” value runs as follows: under setting [1], 6.235 ± 1.356 μg/cm^2/h; under setting [2], 6.771 ± 2.872 μg/cm^2/h; under setting [3], 0.012 ± 0.007 μg/cm^2/h; under setting [4], 6.757 ± 3.012 μg/cm^2/h; (Phenylalanine ester: None) 0.012 ± 0.007 μg/cm^2/h. For the same molecule, the “Skin penetration rate of AI compound” value is, setting by setting: under setting [5], 0.012 ± 0.007 μg/cm^2/h; under setting [6], 0.007 ± 0.012 μg/cm^2/h; under setting [7], 0.009 ± 0.011 μg/cm^2/h; under setting [8], 5.598 ± 2.812 μg/cm^2/h; under setting [9], 5.523 ± 3.012 μg/cm^2/h; under setting [10], 6.725 ± 3.327 μg/cm^2/h. Besides, the “Skin penetration rate of AI compound” value is, setting by setting: under setting [11], 5.793 ± 3.116 μg/cm^2/h; under setting [12], 5.786 ± 3.162 μg/cm^2/h; under setting [13], 6.915 ± 3.452 μg/cm^2/h.
For the molecule `N[C@@H](CCC(=O)N[C@@H](CS)C(=O)NCC(=O)O)C(=O)O` [Glutathione], the “Skin penetration rate of Al compound” value was found to be 16.356 ± 3.011 μg/cm^2/h under setting [1]; 17.526 ± 2.451 μg/cm^2/h under setting [2]; 0.012 ± 0.010 μg/cm^2/h under setting [3]; 17.358 ± 2.259 μg/cm^2/h under setting [4]; 0.016 ± 0.009 μg/cm^2/h (Phenylalanine ester: None). Also, the “Skin penetration rate of AI compound” value reads like this: under setting [5], 0.013 ± 0.011 μg/cm^2/h; under setting [6], 0.011 ± 0.008 μg/cm^2/h; under setting [7], 0.008 ± 0.013 μg/cm^2/h; under setting [8], 14.581 ± 2.183 μg/cm^2/h; under setting [9], 14.121 ± 2.131 μg/cm^2/h; under setting [10], 18.126 ± 3.451 μg/cm^2/h. The “Skin penetration rate of AI compound” value under setting [11] came out at 14.698 ± 2.321 μg/cm^2/h, the “Skin penetration rate of AI compound” value under setting [12] stood at 14.128 ± 2.119 μg/cm^2/h and the “Skin penetration rate of AI compound” value under setting [13] is 17.978 ± 3.479 μg/cm^2/h.
Take `Oc1ccc(C=Cc2cc(O)cc(O)c2)cc1` [Resveratrol]: the “Skin penetration rate of Al compound” value reads like this: under setting [1], 18.568 ± 3.112 μg/cm^2/h; under setting [2], 18.745 ± 3.112 μg/cm^2/h; under setting [3], 0.015 ± 0.011 μg/cm^2/h; under setting [4], 18.978 ± 2.135 μg/cm^2/h; (Phenylalanine ester: None) 0.015 ± 0.011 μg/cm^2/h. Moreover, the “Skin penetration rate of AI compound” value runs as follows: under setting [5], 0.016 ± 0.010 μg/cm^2/h; under setting [6], 0.013 ± 0.011 μg/cm^2/h; under setting [7], 0.017 ± 0.021 μg/cm^2/h; under setting [9], 16.028 ± 2.862 μg/cm^2/h; under setting [10], 20.728 ± 3.962 μg/cm^2/h; under setting [11], 16.236 ± 2.805 μg/cm^2/h. Moreover, the “Skin penetration rate of AI compound” value by setting is: under setting [12], 16.126 ± 3.005 μg/cm^2/h; under setting [13], 20.177 ± 3.195 μg/cm^2/h.
